From patent US5663335A, “Immunosuppressive compounds and methods” (priority 1996, dated 1997) come the findings set out here.

The test system of data set [1] is spleen cells (C57BL/6 responder, irradiated Balb/C stimulator). The data set is described as follows: Mixed lymphocyte reaction (MLR): inhibition of responder spleen cell proliferation. Format: cell-based. Particulars: Mus musculus, 96 h, four days incubation. Here is the method: Inhibition of cell proliferation in the mixed lymphocyte reaction (MLR) (Bradley, 1980; Mishell, 1980) is a measure of in vivo immunosuppression. Spleen cells from female C57BL/6 mice, the "responder" cells, were prepared and co-cultured alone or in the presence of varying concentrations of the test compounds, with irradiated spleen cells prepared from female Balb/C mice, the "stimulator" cells. Prior irradiation of the stimulator cells rendered them unable to proliferate. A sample of the responder cells was also irradiated for use as a control. The non-irradiated responder cells proliferate in the presence of the allogenic stimulator cells. After a 78-hour incubation, tritiated thymidine was added to the mixed cell cultures, and incorporation of the labeled nucleotide into DNA was measured as an index of cell proliferation. […]
In the assay, 4×10^5 cells of R were cocultured with 4×10^5 cells of Sx in 200 μl of medium in round bottom 96 well tissue culture plates. […] The spontaneous proliferation of R was also measured.
The culture plates were incubated at 37° C. in a 5% CO2 incubator for four days. […] Cells were then harvested and counted. […] Sample cpm was calculated as (R+Sx+sample)cpm-(R+Rx +sample)cpm; control cpm was calculated as (R+Sx)cpm-(R+Rx)cpm. Percent suppression of MLR activity was calculated as (1-sample cpm/control cpm)×100. […]

A short description of data set [2]: Cytotoxicity by MTT assay, reported with the IL-1 assay (Table I). Format: cell-based. Particulars: mouse, thymocytes, cytotoxic when toxicity greater than 25%. Here is the method: (§1) Potential cytotoxicity of the test samples was assessed by the measurement of their effect on the reduction of MTT (3-[4,5-Dimethylthiazole-2-yl]-2,5-diphenyltetrazolium bromide) by cultured cells. MTT, a yellow-colored compound, is reduced by mitochondrial enzymes to form the purple crystalline reduction product formazane, providing an index of cellular respiration on viable cells as well as a sensitive assay for cytotoxicity (Mossmann, 1983).
(§2) The cytotoxicity was assessed in cultured human PBMC and mouse thymocytes. A stock solution of MTT (Sigma) at 5 mg/ml in phosphate buffered saline, pH 7.4, was prepared and stored in the dark at 4° C. PBMCs or thymocytes were cultured with various concentrations of test samples in flatbottom 96-well tissue culture plates (Costar) under the same conditions as those described above, but the stimulants (X-35 or IL-1+PHA) were replaced by appropriate medium. Untreated cells with medium alone and without the test samples were used as controls. After incubation for 21 hours, 25 μl of MTT solution was added to each well. After an additional three hours of incubation, the experiment was terminated by addition of a solution of 10% sodium dodecyl sulfate in 0.01N HCl. Following overnight incubation at 37° C. to solubilize the formazane crystals, optical density was determined at 570-650 nm in microplate reader. […]
For orientation: Tetrazolium dyes change colour on reduction, which living cells bring about.

Data set [3] in a line: Cytotoxicity by MTT assay, reported with the MLR assay (Table II). The data set is classed as cell-based. To be noted: pbmc and thymocytes, cytotoxic when toxicity greater than 25%. As for the experimental part:
as §1, §2

Data set [4] can be described thus: Stability in blood serum (TLC). To be noted: rat serum, 37° C. The data set is classed as in vitro ADME. Here is the method: The stability of triptolide succinate in blood serum was determined as detailed in Example 10B. In this study, a solution of triptolide succinate (YM-262, free acid) in DMSO was mixed with rat serum and incubated at 37° C. The mixture was assayed periodically by thin layer chromatography (TLC) to follow the hydrolysis of the triptolide succinate over time.
A solution of triptolide succinate (free acid; YM-262) in DMSO was made at a concentration of 25 mg/ml, and 0.1 ml of this solution was mixed with 0.5 ml of rat serum. The mixture was incubated at 37° C. Aliquots of the mixture were taken at 1, 3, 5, 15, 45 minutes and 18 hours and analyzed by thin layer chromatography (TLC). The TLC plates were developed in 1:5 CH2 CI2 /Et2 O. After development, the plates were treated with iodine vapor and examined under a UV lamp. Triptolide and triptolide succinate were used as reference compounds (Rf =0.60), and 0.45, respectively).

Like-named read-outs stand apart in the source and are kept apart here.

Consider `CC(C)[C@]12O[C@H]1[C@@H]1O[C@]13[C@]1(O[C@H]1C[C@H]1C4=C(CC[C@@]13C)C(=O)OC4)[C@@H]2O` [Triptolide, triptolide], for which the IC50 in data set [1] (read-out: IC50 (concentration of sample producing 50% suppression of proliferation), MLR assay) was 0.9 ng/mL; in data set [1] (read-out: IC50, MLR assay) it was 2.5 nM. Moreover, the MCC is greater than 12.5 µg/mL in data set [2] and 0.0133 µg/mL in data set [3]. Moreover, the “triptolide spot, 15 minutes (formed from triptolide succinate)” value in data set [4] (15 minutes) is recorded as “a new spot corresponding to triptolide had appeared”. Besides, in data set [4] (45 minutes), the “triptolide spot, 45 minutes (formed from triptolide succinate)” value is “the triptolide spot had also disappeared”.
